This note sets out measurements from ChEMBL document CHEMBL1201862, “PubChem BioAssay data set” (2004).

Each structure is given as a SMILES string.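 Step 1: Grow cells in 96-well plates. Step 2: Expose to compound for 48 hours at 5 concentrations. Step 3: Interpolate endpoints linearly; if unreached, use highest concentration. At the GI50, growth is halved.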 Calls of active or inactive are those of the source. No stated cut-off is given here; in the data, active = GI50 up to about 1.1 µM and inactive = higher.

Test systems include MOLT-4; HCT-116; SF-295; OVCAR-5; SK-MEL-28; OVCAR-8; CCRF-CEM; HOP-92; SW-620; K562; OVCAR-3; HOP-62; DU-145; SNB-75; UACC-62; EKVX; NCI-H226; NCI-H23; MDA-N.
Common to all, as to experiment: DTP human tumour cell line panel, 48 h

A word on the GI50: it is the concentration that inhibits growth by half. Take `COc1cccc2c1C(=O)c1c(O)c3c(c(O)c1C2=O)CC(O)(C(C)=O)CC3OC1OC(COC(C)=O)C(OC(C)=O)C(OC(C)=O)C1OC(C)=O` (configuration not stated): the GI50 with MOLT-4 is 12.8 µM (inactive); in the assay on HCT-116, 55.8 µM (inactive); in the assay on SF-295 it was 17.2 µM (inactive); with OVCAR-5, 24.1 µM (inactive); with SK-MEL-28, 85.5 µM (inactive); in the assay with OVCAR-8, 11.5 µM (inactive). Further, the 50% growth inhibitory concentration (GI50) is 0.0276 µM (active) in the assay on CCRF-CEM; 0.515 µM (active) with HOP-92; > 100 µM (inactive) in the assay on SW-620; 18.5 µM (inactive) in the assay on K562; 14 µM (inactive) with OVCAR-3; 10.2 µM (inactive) in the assay with HOP-62. Moreover, the GI50 is 26.9 µM (inactive) in the assay with DU-145, 9.29 µM (inactive) in the assay with SNB-75, 33.2 µM (inactive) in the assay with UACC-62 and 0.116 µM (active) in the assay on EKVX.

For the molecule `CN(C)c1ccc(/C=C2\Oc3cc(O)ccc3C2=O)cc1`, the GI50 in the assay on MOLT-4 is 60.8 µM (inactive); with HCT-116, > 100 µM (inactive); in the assay with SF-295 it was 30.5 µM (inactive); with SK-MEL-28, > 100 µM (inactive); in the assay with OVCAR-8, > 100 µM (inactive); in the assay with CCRF-CEM, 69.5 µM (inactive). For the same molecule, the GI50 in the assay with SW-620 is 48.9 µM (inactive); in the assay on K562, 37.8 µM (inactive); in the assay on OVCAR-3, 38.7 µM (inactive); in the assay on HOP-62, > 100 µM (inactive); in the assay on DU-145, > 100 µM (inactive); in the assay on SNB-75, 79.6 µM (inactive). For the same molecule, the GI50 with UACC-62, in the assay on EKVX, in the assay on NCI-H226 and in the assay with NCI-H23 was > 100 µM (inactive) each time.

With `COC(=O)C1=C(OC(=O)/C(=C/c2c(F)cccc2F)c2ccccc2)C(C(=O)OC)[C@@]2(O)[C@@H](C(=O)OC)[C@H](C)C[C@@H]1[C@@H]2C(=O)OC` (some centres not stated), the GI50 with MOLT-4, in the assay with HCT-116, in the assay with SF-295, with OVCAR-5, in the assay on SK-MEL-28 and in the assay with OVCAR-8 was > 100 µM (inactive) each time. In addition, the GI50 with CCRF-CEM, with SW-620, in the assay on K562, with OVCAR-3, in the assay with HOP-62 and in the assay on DU-145 was > 100 µM (inactive) throughout. Moreover, the GI50 in the assay on SNB-75, with UACC-62, with EKVX, with NCI-H226 and with NCI-H23 was > 100 µM (inactive) each time.

For `C/C(=N\Nc1nc2ccccc2[nH]1)c1cnccn1`, the GI50 with MOLT-4 was 0.232 µM (active); in the assay on HCT-116, 0.379 µM (active); in the assay with SF-295 it was 1.77 µM (inactive); in the assay on OVCAR-5, 6.84 µM (inactive); in the assay with SK-MEL-28, 0.506 µM (active); in the assay with OVCAR-8, 0.8 µM (active). Further, the GI50 in the assay on CCRF-CEM is 0.31 µM (active); in the assay with HOP-92, 0.385 µM (active); with SW-620, 0.4 µM (active); in the assay on K562, 1.23 µM (inactive); in the assay with OVCAR-3, 0.296 µM (active); with HOP-62, 0.619 µM (active). The GI50 was 1.9 µM (inactive) in the assay with MDA-N; 3.61 µM (inactive) in the assay on SNB-75; 0.652 µM (active) in the assay with UACC-62; 0.491 µM (active) in the assay with EKVX; 0.441 µM (active) with NCI-H226; 1.71 µM (inactive) in the assay on NCI-H23.

For the molecule `COCN1C(=O)[C@@H]2C[C@@H](OC/C=C/CBr)CN2C(=O)c2ccccc21`, the GI50 in the assay with MOLT-4 was 17.7 µM (inactive); in the assay on HCT-116, 13.2 µM (inactive); with SF-295, 22.3 µM (inactive); with OVCAR-5 it was 20.1 µM (inactive); in the assay on SK-MEL-28, 18.9 µM (inactive); with OVCAR-8, 14.5 µM (inactive). In addition, the GI50 with CCRF-CEM was 5.77 µM (inactive); with SW-620 it was 13.9 µM (inactive); in the assay on HOP-62, 22.7 µM (inactive); in the assay on MDA-N, 15.8 µM (inactive); in the assay on DU-145 it was 19.4 µM (inactive); with SNB-75, 10.7 µM (inactive). Besides, the GI50 was 19 µM (inactive) with UACC-62, 23 µM (inactive) in the assay on EKVX, 9.38 µM (inactive) with NCI-H226 and 23.2 µM (inactive) in the assay with NCI-H23.

As to `O=C1C(=Cc2cccc(O)c2)N=C(c2ccccc2)N1n1c(-c2ccccc2)nc2ccccc2c1=O`, the GI50 is 15.9 µM (inactive) in the assay on MOLT-4; 17.5 µM (inactive) with HCT-116; 24 µM (inactive) with SF-295; 37.1 µM (inactive) with OVCAR-5; 25.2 µM (inactive) in the assay on SK-MEL-28; 31.4 µM (inactive) in the assay on OVCAR-8. The GI50 was 24.3 µM (inactive) with CCRF-CEM; 15.5 µM (inactive) with HOP-92; 42.3 µM (inactive) with SW-620; 37.3 µM (inactive) in the assay with K562; 22.4 µM (inactive) in the assay with OVCAR-3; 27.7 µM (inactive) in the assay on DU-145. Moreover, the GI50 was 19.7 µM (inactive) in the assay on UACC-62, 34.9 µM (inactive) in the assay with EKVX, 0.48 µM (active) with NCI-H226 and 22.1 µM (inactive) with NCI-H23.

As to `COC(=O)C(C(=O)C(=O)Nc1c(C)cccc1C)c1cnc2ccccc2n1` (configuration not stated), the GI50 in the assay with MOLT-4, in the assay with HCT-116, in the assay on SF-295, with OVCAR-5, in the assay on SK-MEL-28 and with OVCAR-8 was > 100 µM (inactive) each time. For the same molecule, the GI50 in the assay on CCRF-CEM, in the assay with HOP-92, in the assay with SW-620, in the assay with K562, with SNB-75 and with UACC-62 was > 100 µM (inactive) each time. Moreover, the GI50 in the assay on EKVX, in the assay with NCI-H226 and in the assay with NCI-H23 was > 100 µM (inactive) throughout.

For `CCCCCCNC(=O)c1cc(C#Cc2cc(OC)ccc2OC)ccc1OC`, the GI50 with MOLT-4 was 4.84 µM (inactive); with SF-295 it was 51.9 µM (inactive); in the assay on OVCAR-5, > 100 µM (inactive); in the assay with SK-MEL-28, 3.04 µM (inactive); in the assay on OVCAR-8 it was > 100 µM (inactive); with HOP-92 it was 9.77 µM (inactive). For the same molecule, the GI50 is 8.49 µM (inactive) in the assay on SW-620; 3.92 µM (inactive) in the assay on K562; 3.22 µM (inactive) in the assay with MDA-N; 58.9 µM (inactive) in the assay with EKVX; 47.4 µM (inactive) with NCI-H23.

In the case of `Cc1nc2ccc(NC(=S)Nc3ccccc3)cc2c(=O)n1-c1ccccc1`, the GI50 with MOLT-4 is 48.9 µM (inactive); in the assay on HCT-116, > 100 µM (inactive); with SF-295, > 100 µM (inactive); with OVCAR-5, > 100 µM (inactive); in the assay with SK-MEL-28, 62.2 µM (inactive); in the assay with OVCAR-8 it was > 100 µM (inactive). For the same molecule, the GI50 in the assay on SW-620 is 76.7 µM (inactive); in the assay with K562 it was 46.3 µM (inactive); in the assay on OVCAR-3, > 100 µM (inactive); in the assay with HOP-62 it was > 100 µM (inactive); in the assay with MDA-N, > 100 µM (inactive); with DU-145, > 100 µM (inactive). In addition, the GI50 in the assay on SNB-75, in the assay on UACC-62, with EKVX, in the assay with NCI-H226 and in the assay with NCI-H23 was > 100 µM (inactive) each time.

With `Oc1cn(-c2ccc(Cl)cc2)nc1-c1n[nH]c(=S)n1-c1ccccc1`, the GI50 in the assay with MOLT-4 is 62.7 µM (inactive); in the assay on HCT-116, 6.37 µM (inactive); with SF-295, 4.94 µM (inactive); with OVCAR-5, 24.2 µM (inactive); in the assay with SK-MEL-28, 16.8 µM (inactive); in the assay on OVCAR-8, 14.9 µM (inactive). Besides, the GI50 is > 100 µM (inactive) with HOP-92; 5.07 µM (inactive) with SW-620; 3.95 µM (inactive) in the assay on K562; 2.51 µM (inactive) in the assay on OVCAR-3; 10 µM (inactive) with HOP-62; 22.3 µM (inactive) in the assay with DU-145. Moreover, the GI50 is 21.1 µM (inactive) with SNB-75; 11.4 µM (inactive) in the assay with UACC-62; 27.2 µM (inactive) in the assay with EKVX; 6.22 µM (inactive) in the assay on NCI-H226; 10.5 µM (inactive) in the assay with NCI-H23.

Take `CC1(C)OCC(COC(=O)NCn2cc(-c3ccccc3)nn2)O1` (configuration not stated): the GI50 in the assay with MOLT-4, in the assay on HCT-116, with SF-295, in the assay with OVCAR-5, with SK-MEL-28 and in the assay on OVCAR-8 was > 100 µM (inactive) in each case. Moreover, the GI50 in the assay on CCRF-CEM, with HOP-92, with SW-620, with K562, with HOP-62 and with DU-145 was > 100 µM (inactive) in each case. Besides, the GI50 in the assay with SNB-75, in the assay on EKVX, with NCI-H226 and in the assay with NCI-H23 was > 100 µM (inactive) in each case.

`CCOC(=O)c1nnsc1NC(=O)NCCCCCCn1c(=O)n(CCCCCCNC(=O)Nc2snnc2C(=O)OCC)c(=O)n(CCCCCCNC(=O)Nc2snnc2C(=O)OCC)c1=O`: the GI50 in the assay on MOLT-4 was 31.1 µM (inactive); in the assay on HCT-116, 38.8 µM (inactive); in the assay on SF-295, 16.9 µM (inactive); in the assay with OVCAR-5, > 100 µM (inactive); in the assay on OVCAR-8, 35.8 µM (inactive); in the assay with CCRF-CEM it was 38.5 µM (inactive). The GI50 is 67.6 µM (inactive) in the assay with SW-620; 66.4 µM (inactive) in the assay with K562; 57.8 µM (inactive) with OVCAR-3; 25.4 µM (inactive) with HOP-62; 36.8 µM (inactive) in the assay on MDA-N; 49.3 µM (inactive) with DU-145. Besides, the GI50 in the assay on SNB-75 is 29.1 µM (inactive); with UACC-62 it was 17.3 µM (inactive); in the assay with EKVX, 60.4 µM (inactive); with NCI-H226, 18.1 µM (inactive); in the assay on NCI-H23, 24.9 µM (inactive).
